The values that follow come from article PMC10545747, “Development of cyclopeptide inhibitors of cGAS targeting protein-DNA interaction and phase separation” (Nature Communications, 2023).

“And” between values parts separate entries of the source, which are not always exact repeats. Equal values may be shown once. Read-outs that look alike come from different tables or passages of the source. Square brackets hold non-standard residues; d marks the D form. Peptide text beside a SMILES is read from it. Hyp = O=C(O)[C@@H]1C[C@@H](O)CN1

For orientation: inhibition means the share of the control response that was lost under treatment. By remaining activity is commonly meant the signal under treatment as a percentage of the control signal.

This experiment has as its target T1, recombinant human cGAS enzyme (hcGAS-ΔN, residues 147–522) (Homo sapiens, UniProt Q8N884).
T1 construct: N-terminally truncated human cGAS (hcGAS-ΔN, residues 147–522); 6xHis-SUMO (N, cleaved yes); made in house; host or cells: Escherichia coli BL21 (DE3)
As to the kind of experiment: RNA-based fluorescent biosensor assay of cGAS activity (2',3'-cGAMP formation), in vitro screening. Type of experiment: biochemical. Conditions: for Remaining activity (%), Fig. 1a source data / remaining activity at 20 µM: 20 μM, replicate values; for remaining activity at 20 µM: read-out: Remaining activity (%), Fig. 1a source data. An outline of the steps:
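In 40 mM Tris-HCl pH 7.5, 100 mM NaCl, 10 mM MgCl2, ISD (0.5 μM) started the reaction with hcGAS-ΔN (1.5 μM), ATP (1 mM) and GTP (1 mM). Incubation was 2 h at 37 °C, with compounds screened at 20 μM. 2',3'-cGAMP formed was quantified with an RNA-based fluorescent biosensor.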

[1] abbreviates: peptides screened at 20 μM, Supplementary Table 1 / Fig. S5b, read-out: Inhibition %.
[2] abbreviates: peptides screened at 20 μM, Supplementary Table 1 / Fig. S5b.

T1 sequence (Q8N884 147-522, stated change not applied): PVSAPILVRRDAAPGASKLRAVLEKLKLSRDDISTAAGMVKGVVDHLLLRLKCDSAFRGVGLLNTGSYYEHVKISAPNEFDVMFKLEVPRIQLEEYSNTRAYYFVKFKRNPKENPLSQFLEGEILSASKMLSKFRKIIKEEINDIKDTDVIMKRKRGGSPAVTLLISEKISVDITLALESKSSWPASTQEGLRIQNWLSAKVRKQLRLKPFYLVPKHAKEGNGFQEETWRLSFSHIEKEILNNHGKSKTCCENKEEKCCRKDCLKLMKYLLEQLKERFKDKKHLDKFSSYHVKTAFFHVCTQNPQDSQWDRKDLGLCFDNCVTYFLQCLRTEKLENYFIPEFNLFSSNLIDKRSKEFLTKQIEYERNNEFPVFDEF

With `CC(C)C[C@@H]1NC(=O)[C@H](CCCNC(=N)N)NC(=O)[C@H](CC(=O)O)NC(=O)[C@H](C(C)C)NC(=O)[C@@H]2CCCN2C(=O)[C@@H](Cc2ccccc2)NC(=O)[C@H](CC(C)C)NC(=O)[C@H]([C@@H](C)O)NC(=O)[C@@H]2CCCN2C(=O)[C@@H](Cc2ccccc2)NC1=O` [XQ65, Cyclo (LfPTLfPVDR)] (cyclo(DRL[dF]PTL[dF]PV)), the inhibition at 20 µM under setting [1] worked out at 0%. As to Cyclo (LfPTDLf(K(Alloc))VR) [XQ72], the Inhibition % under setting [2] worked out at 0%. Cyclo (LwPTD(Nle)f(K(Dde))VR) [XQ73]: the Inhibition % under setting [2] was determined as 0%.

As to `N=C(N)NCCC[C@@H]1NC(=O)[C@@H]2CCCN2C(=O)[C@H](Cc2ccccc2)NC(=O)[C@H](CCCNC(=N)N)NC(=O)[C@@H]2CCCN2C(=O)[C@@H](Cc2ccccc2)NC1=O` [XQ27, Cyclo (RfPRFP)] (cyclo(FPR[dF]PR)), the “Remaining activity (%), Fig. 1a source data” value (shortened to “Remaining activity (%)”) was 109.194% and 109.746%; the remaining activity at 20 µM is 107%. Moreover, the inhibition at 20 µM under setting [1] was 0%. In the case of `CC(C)C[C@@H]1NC(=O)[C@H](CCCNC(=N)N)NC(=O)[C@H](C(C)C)NC(=O)[C@H](CC(C)C)NC(=O)[C@@H](Cc2ccccc2)NC(=O)[C@H](C)NC(=O)[C@H](CCCNC(=N)N)NC(=O)[C@H](C(C)C)NC(=O)[C@@H]2CCCN2C(=O)[C@@H](Cc2ccccc2)NC1=O` [XQ48, Cyclo (AfLVRLfPVR)] (cyclo(A[dF]LVRL[dF]PVR)), the inhibition at 20 µM under setting [1] amounted to 0%. For `CC(C)C[C@@H]1NC(=O)[C@H](CCCNC(=N)N)NC(=O)[C@H]([C@@H](C)O)NC(=O)[C@@H]2CCCN2C(=O)[C@@H](C)NC(=O)[C@H](CC(C)C)NC(=O)[C@H](CCCNC(=N)N)NC(=O)[C@H]([C@@H](C)O)NC(=O)[C@@H]2CCCN2C(=O)[C@@H](C)NC1=O` [XQ40, Cyclo (LaPTRLaPTR)] (cyclo(L[dA]PTRL[dA]PTR)), the “Remaining activity (%)” value is 115.337% and 116.119%; the remaining activity at 20 µM was determined as 117%. Moreover, under setting [1], the inhibition at 20 µM was found to be 0%.

With `CC(C)C[C@@H]1NC(=O)[C@H](CCCNC(=N)N)NC(=O)[C@H](C(C)C)NC(=O)[C@H](CC(=O)O)NC(=O)[C@@H]2CCCN2C(=O)[C@@H](Cc2ccccc2)NC(=O)[C@H](CC(C)C)NC(=O)[C@H]([C@@H](C)O)NC(=O)[C@@H]2CCCN2C(=O)[C@@H](Cc2ccccc2)NC1=O` [XQ66, Cyclo (LfPTLfPDVR)] (cyclo(DVRL[dF]PTL[dF]P)), the inhibition at 20 µM under setting [1] is 0%. Regarding `CC(C)C[C@@H]1NC(=O)[C@H](CCCNC(=N)N)NC(=O)[C@H](C(C)C)NC(=O)[C@@H]2CCCN2C(=O)[C@@H](CC(C)C)NC(=O)[C@H](C)NC(=O)[C@H](CCCNC(=N)N)NC(=O)[C@H](C(C)C)NC(=O)[C@@H]2CCCN2C(=O)[C@@H](Cc2ccccc2)NC1=O` [XQ49, Cyclo (AlPVRLfPVR)] (cyclo(A[dL]PVRL[dF]PVR)), the inhibition at 20 µM is 0%.

As to `CC(C)C[C@@H]1NC(=O)[C@H](CCCNC(=N)N)NC(=O)[C@H](C(C)C)NC(=O)[C@@H]2CCCN2C(=O)[C@@H](Cc2ccccc2)NC(=O)[C@H](C)NC(=O)[C@H](CCCNC(=N)N)NC(=O)[C@H](C(C)C)NC(=O)[C@@H]2CCCN2C(=O)[C@@H](Cc2ccccc2)NC1=O` [XQ5, Cyclo (AfPVRLfPVR)] (cyclo(A[dF]PVRL[dF]PVR)), the “Remaining activity (%)” value is 92.0132% and 91.3002%; the remaining activity at 20 µM is 92.3%. The inhibition at 20 µM under setting [1] was determined as 8%. Take `CC(C)C[C@@H]1NC(=O)[C@H](CCCNC(=N)N)NC(=O)[C@H](C)NC(=O)[C@@H]2CCCN2C(=O)[C@@H](Cc2ccccc2)NC(=O)[C@H](C)NC(=O)[C@H](CCCNC(=N)N)NC(=O)[C@H](C)NC(=O)[C@@H]2CCCN2C(=O)[C@@H](Cc2ccccc2)NC1=O` [XQ16, Cyclo (AfPARLfPAR)] (cyclo(ARA[dF]PARL[dF]P)): the “Remaining activity (%)” value was 99.1383% and 98.554%; the remaining activity at 20 µM came out at 98.3%. Further, under setting [1], the inhibition at 20 µM was found to be 1%. Consider Cyclo (LfRADAfPTR) [XQ80], for which, under setting [2], the Inhibition % is given as 0%. Take `CC(C)C[C@@H]1NC(=O)[C@H](CCCNC(=N)N)NC(=O)[C@H]([C@@H](C)O)NC(=O)[C@@H]2C[C@@H](O)CN2C(=O)[C@@H](Cc2ccccc2)NC(=O)[C@H](CC(C)C)NC(=O)[C@H](CCCNC(=N)N)NC(=O)[C@H]([C@@H](C)O)NC(=O)[C@@H]2CCCN2C(=O)[C@@H](Cc2ccccc2)NC1=O` [XQ33, Cyclo (Lf(Hyp)TRLfPTR)] (cyclo([Hyp]TRL[dF]PTRL[dF])): the “Remaining activity (%)” value was 98.2995% and 98.5649%; the remaining activity at 20 µM was 97.1%. Under setting [1], the inhibition at 20 µM is 2%. Cyclo (LfPVDAfPVR) [XQ81]: the Inhibition % under setting [2] came out at 0%.

Turning to `CC(C)C[C@@H]1NC(=O)[C@H](CCCNC(=N)N)NC(=O)[C@H]([C@@H](C)O)NC(=O)[C@@H]2CCCN2C(=O)[C@@H](Cc2ccccc2)NC(=O)[C@H](Cc2ccccc2)NC(=O)[C@H](CCCNC(=N)N)NC(=O)[C@H]([C@@H](C)O)NC(=O)[C@@H]2CCCN2C(=O)[C@@H](Cc2ccccc2)NC1=O` [XQ29, Cyclo (FfPTRLfPTR)] (cyclo(F[dF]PTRL[dF]PTR)), the “Remaining activity (%)” value was 92.9858% and 93.5702%; the remaining activity at 20 µM turned out to be 92.7%. Also, the inhibition at 20 µM under setting [1] was 7%. Regarding `CC(C)C[C@@H]1NC(=O)[C@H](CCCNC(=N)N)NC(=O)[C@H](C(C)C)NC(=O)[C@@H]2CCCN2C(=O)[C@@H](Cc2ccccc2)NC(=O)[C@H](CC(C)C)NC(=O)[C@H](CC(=O)O)NC(=O)[C@H](C(C)C)NC(=O)[C@H](CCCNC(=N)N)NC(=O)[C@@H](Cc2ccccc2)NC1=O` [XQ76, Cyclo (LfRVDLfPVR)] (cyclo(DL[dF]PVRL[dF]RV)), under setting [1], the inhibition at 20 µM is 0%. For `CC(C)C[C@@H]1NC(=O)[C@H](CCCNC(=N)N)NC(=O)[C@H]([C@@H](C)O)NC(=O)[C@@H]2CCCN2C(=O)[C@@H](C(C)C)NC(=O)[C@H](CC(C)C)NC(=O)[C@H](CCCNC(=N)N)NC(=O)[C@H]([C@@H](C)O)NC(=O)[C@@H]2CCCN2C(=O)[C@@H](Cc2ccccc2)NC1=O` [XQ31, Cyclo (LvPTRLfPTR)] (cyclo(L[dF]PTRL[dV]PTR)), the “Remaining activity (%)” value is 70.1575% and 70.5622%; the remaining activity at 20 µM was 69.4%. Further, under setting [1], the inhibition at 20 µM is 30%.

For the compound `CC(C)C[C@@H]1NC(=O)[C@H](CC(=O)O)NC(=O)[C@H](CCCNC(=N)N)NC(=O)[C@H](C(C)C)NC(=O)[C@@H]2CCCN2C(=O)[C@@H](Cc2ccccc2)NC(=O)[C@H](CC(C)C)NC(=O)[C@H]([C@@H](C)O)NC(=O)[C@@H]2CCCN2C(=O)[C@@H](Cc2ccccc2)NC1=O` [XQ64, Cyclo (DLfPTLfPVR)] (cyclo(DL[dF]PTL[dF]PVR)), the inhibition at 20 µM under setting [1] was 0%. Regarding `CC(C)C[C@H]1NC(=O)[C@H](Cc2ccccc2)NC(=O)[C@H]2CCCN2C(=O)[C@@H]([C@H](C)O)NC(=O)[C@@H](CCCNC(=N)N)NC(=O)[C@@H](CC(C)C)NC(=O)[C@H](Cc2ccccc2)NC(=O)[C@H]2CCCN2C(=O)[C@@H](C(C)C)NC(=O)[C@@H](CCCNC(=N)N)NC1=O` [XQ23, Cyclo (tpFlrvpFlr)] (cyclo(F[dL][dR][dT][dP]F[dL][dR][dV][dP])), the “Remaining activity (%)” value is 103.183% and 102.415%; the remaining activity at 20 µM worked out at 103%. In addition, under setting [1], the inhibition at 20 µM stood at 0%. For Cyclo (LwPVD(Nle)f(K(Dde))IR) [XQ75], under setting [2], the Inhibition % is reported as 0%. With `CC(C)C[C@@H]1NC(=O)[C@H](CCCNC(=N)N)NC(=O)[C@H](C(C)C)NC(=O)[C@@H]2C[C@@H](O)CN2C(=O)[C@@H](Cc2ccccc2)NC(=O)[C@H](CC(C)C)NC(=O)[C@H](CCCNC(=N)N)NC(=O)[C@H](C(C)C)NC(=O)[C@@H]2CCCN2C(=O)[C@@H](Cc2ccccc2)NC1=O` [XQ6, Cyclo (LfPVRLf(Hyp)VR)] (cyclo([Hyp]VRL[dF]PVRL[dF])), the “Remaining activity (%)” value is 68.1038% and 66.5986%; the remaining activity at 20 µM came out at 66.6%. The inhibition at 20 µM under setting [1] is 32%.

As to Cyclo (LfPTDLf(Orn(Dde))VR) [XQ70], the Inhibition % under setting [2] is 0%.

As for `CC(C)C[C@@H]1NC(=O)[C@H](CCCNC(=N)N)NC(=O)[C@H](C(C)C)NC(=O)[C@H](C)NC(=O)[C@@H](Cc2ccccc2)NC(=O)[C@H](C)NC(=O)[C@H](CC(=O)O)NC(=O)[C@H](C(C)C)NC(=O)[C@@H]2CCCN2C(=O)[C@@H](Cc2ccccc2)NC1=O` [XQ57, Cyclo (LfPVDAfAVR)] (cyclo(AVRL[dF]PVDA[dF])), under setting [1], the inhibition at 20 µM is 0%.

As to `CC(C)C[C@@H]1NC(=O)[C@H](C)NC(=O)[C@H](C(C)C)NC(=O)[C@@H]2CCCN2C(=O)[C@@H](Cc2ccccc2)NC(=O)[C@H](CCCNC(=N)N)NC(=O)[C@H](CCCNC(=N)N)NC(=O)[C@H](C(C)C)NC(=O)[C@@H]2CCCN2C(=O)[C@@H](Cc2ccccc2)NC1=O` [XQ44, Cyclo (RfPVALfPVR)] (cyclo(AL[dF]PVRR[dF]PV)), the “Remaining activity (%)” value was 107.77% and 107.519%; the remaining activity at 20 µM turned out to be 107%. Besides, the inhibition at 20 µM under setting [1] is 0%. For the compound Cyclo (LaP(T(Bzl))RLaPTR) [XQ41], the “Remaining activity (%)” value is 101.101% and 103.439% and 102.283%. The Inhibition % under setting [2] is listed as 0%.

On to Cyclo ((hex)DLfPVR(hex)) [XQ69], for which the Inhibition % under setting [2] worked out at 0%. As for `CC(C)C[C@@H]1NC(=O)[C@H](CCCNC(=N)N)NC(=O)[C@H](C)NC(=O)[C@@H]2CCCN2C(=O)[C@@H](Cc2ccccc2)NC(=O)[C@H](CC(C)C)NC(=O)[C@H](CCCNC(=N)N)NC(=O)[C@H](C)NC(=O)[C@@H]2CCCN2C(=O)[C@@H](Cc2ccccc2)NC1=O` [XQ9, Cyclo (LfPARLfPAR)] (cyclo(ARL[dF]PARL[dF]P)), the “Remaining activity (%)” value is 109.335% and 107.433%; the remaining activity at 20 µM amounted to 108%. Further, the inhibition at 20 µM under setting [1] is 0%.
